Experimental findings from article PMC6385203, “Mutations in the palm domain disrupt modulation of acid-sensing ion channel 1a currents by neuropeptides” (Scientific Reports, 2019) are described below.

Molecules are shown by their SMILES. Peptide text beside a SMILES is read from it.

For orientation: kon means a measure of how fast the partners come together.

The target in the test is T1, WT ASIC1a (Homo sapiens, UniProt P78348).
T1 construct: expressed in transfected cells; host or cells: Xenopus laevis oocytes injected with cRNA
T1 sequence (P78348 1-528): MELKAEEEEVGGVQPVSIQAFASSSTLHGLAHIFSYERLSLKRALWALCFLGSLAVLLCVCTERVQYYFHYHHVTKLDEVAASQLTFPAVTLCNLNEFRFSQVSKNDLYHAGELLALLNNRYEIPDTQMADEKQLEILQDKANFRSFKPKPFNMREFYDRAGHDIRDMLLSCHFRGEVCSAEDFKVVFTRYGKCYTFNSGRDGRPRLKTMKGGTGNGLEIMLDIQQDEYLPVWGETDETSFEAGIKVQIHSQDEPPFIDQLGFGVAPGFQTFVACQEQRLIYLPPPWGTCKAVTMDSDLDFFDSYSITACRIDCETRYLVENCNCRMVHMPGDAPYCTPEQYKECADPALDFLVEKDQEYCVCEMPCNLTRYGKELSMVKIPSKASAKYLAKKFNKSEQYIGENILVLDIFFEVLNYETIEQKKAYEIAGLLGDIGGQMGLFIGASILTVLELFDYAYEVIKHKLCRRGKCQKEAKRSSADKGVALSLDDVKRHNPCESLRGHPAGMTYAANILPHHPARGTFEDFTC
The experiment in a line: Time course of appearance of Isust (association), WT. The format is cell-based. The note with it: pH 7.4, 50 μM FRRFa pre-applied for different times at pH7.4, n = 4, mean ± SEM, read-out: association rate constant kon. The method, then:
ASIC1a function was measured by two-electrode voltage-clamp after recombinant expression in Xenopus oocytes. The channels were activated by a pH5 stimulation solution from a conditioning solution of pH7.4. […] We measured the rate of FRRFa unbinding, as the disappearance of the sustained current after a 50-s incubation with 50 μM FRRFa, as 0.025 ± 0.005 s^−1 (n = 8, Fig. 2b). […] To determine the kinetics of FRRFa association on ASIC1a, we pre-applied the peptide at a concentration of 50 μM for different time periods in the conditioning solution and measured the sustained current fraction.
Figure 2 FRRFa modulation of ASIC1a currents is only partially affected by acidic pocket mutations. (a) FRRFa concentration-response curve. Top, representative current traces. Bottom, Isust/Ipeak ratio induced by pH5 as a function of the FRRFa concentration (pre-applied during 45–50 s and present in pH5 solution), n = 7–11. (b) Time course of disappearance of the FRRFa-induced Isust. FRRFa at 50 μM was applied for 45 s, and current was measured once every minute during washout with FRRFa-free solution. Exponential fit shown as solid line (n = 4, error bars are smaller than the symbols). (c) Time course of appearance of Isust. Oocytes were exposed for various durations to 50 μM FRRFa in the pH7.4 conditioning solution, before activation of ASIC currents with pH5, including 50 μM FRRFa. […]

In the case of `N=C(N)NCCC[C@H](NC(=O)[C@H](CCCNC(=N)N)NC(=O)[C@@H](N)Cc1ccccc1)C(=O)N[C@@H](Cc1ccccc1)C(N)=O` [FRRFa, Phe-Arg-Arg-Phe-amide] (H-FRRF-NH2), the on-rate constant (kon) turned out to be 162 ± 84 M⁻¹ s⁻¹.
